Test results published in patent US4927922A, “7β-(substituted)amino-3-substituted cephalosporanic acids and esters” (American Cyanamid Company, priority 1988, dated 1990).
In brackets after ≈: the same amount, converted by molar mass. Several values for one entry are separate records, joined by “and”; a condition that tells them apart may be missing. Identical values can stand only once. Like-named read-outs stand apart in the source and are kept apart here.

How the values were obtained:
Experiment in all cases: in vitro agar dilution test (MIC)
Assay type in all cases: cell-based
Acinetobacter K 77-1 = settings: K771, Acinetobacter K 77-1, Mueller-Hinton agar
Description: (§1) The compounds of the present invention are active antibacterial agents as established in the in vitro agar dilution test using Mueller-Hinton agar. The test compounds were dissolved in a mixture of dimethyl sulfoxide and aqueous sodium bicarbonate and applied as 1 ml of drug solution plus 9 ml of agar per plate. The innoculum was a 5 hour TSB shake culture diluted to 10^-2 with Mueller-Hinton broth and applied to the plates with a Steers' Replicator.
(§2) The results of this test on representative compounds of this invention (identified by Example Number) against a variety of microorganisms appear in Tables I and II in terms of minimal inhibitory concentration (MIC) in mcg/ml together with Cefotaxime, Cephalothin and Ampicillin as positive controls.

Acinetobacter STFD 79-17 = settings: Mueller-Hinton agar
Description: as §1, §2

[1] = test system: Enterobacter aerogenes STFD 79-14; settings: Klebsiella aerogenes, STFD7914, Enterobacter aerogenes STFD 79-14; Mueller-Hinton agar
Description: as §1, §2

[2] = test system: Enterobacter cloacae K 79-16; settings: K7916, Enterobacter cloacae K 79-16, Mueller-Hinton agar
Description: as §1, §2

Enterococcus OSU 75-1 = settings: Mueller-Hinton agar
Description: as §1, §2

Enterococcus SM 77-15 = settings: SM7715, Enterococcus SM 77-15, Mueller-Hinton agar
Description: as §1, §2

Escherichia coli 311 = settings: Escherichia coli, 311, Escherichia coli 311; Mueller-Hinton agar
Description: as §1, §2

[3] = test system: Escherichia coli ATCC 25922; settings: ATCC25922, Escherichia coli ATCC 25922, Mueller-Hinton agar, Table I
Description: as §1, §2

[4] = test system: Escherichia coli ESS 22-31; settings: ESS2231, Mueller-Hinton agar
Description: as §1, §2

[5] = test system: Escherichia coli STFD 79-20; settings: STFD7920, Escherichia coli STFD 79-20, Mueller-Hinton agar
Description: as §1, §2

Klebsiella SSC 78-1 = settings: SSC781, Klebsiella SSC 78-1, Mueller-Hinton agar
Description: as §1, §2

Klebsiella STFD 79-6 = settings: STFD796, Klebsiella STFD 79-6, Mueller-Hinton agar
Description: as §1, §2

Klebsiella pneumoniae AD = settings: Mueller-Hinton agar, Table I
Description: as §1, §2

[6] = test system: Micrococcus lutea PCI 1001; settings: PCI1001, Micrococcus lutea PCI 1001, Mueller-Hinton agar
Description: as §1, §2

Proteus morganii K 79-25 = settings: Morganella morganii, K7925, Proteus morganii K 79-25; Mueller-Hinton agar
Description: as §1, §2

Proteus rettgheri K 77-6 = settings: Mueller-Hinton agar
Description: as §1, §2

[7] = test system: Providencia stuarti K 81-29; settings: K8129, Mueller-Hinton agar
Description: as §1, §2

[8] = test system: Providencia stuarti SSC 80-78; settings: SSC8078, Mueller-Hinton agar
Description: as §1, §2

Pseudomonas 12-4-4 = settings: Mueller-Hinton agar
Description: as §1, §2

Pseudomonas SSC 78-13 = settings: SSC7813, Mueller-Hinton agar
Description: as §1, §2

[9] = test system: Pseudomonas aeruginosa ATCC 27853; settings: Mueller-Hinton agar
Description: as §1, §2

Salmonella SSC 79-57 = settings: SSC7957, Mueller-Hinton agar
Description: as §1, §2

[10] = test system: Salmonella ariz. QHC 77-3; settings: Mueller-Hinton agar
Description: as §1, §2

Serratia QHC 77-2 = settings: QHC772, Serratia QHC 77-2, Mueller-Hinton agar
Description: as §1, §2

Serratia TUL 78-15 = settings: TUL7815, Serratia TUL 78-15, Mueller-Hinton agar
Description: as §1, §2

[11] = test system: Staphylococcus ATCC 25923; settings: ATCC25923, Staphylococcus ATCC 25923, Mueller-Hinton agar, Table I
Description: as §1, §2

[12] = test system: Staphylococcus FU 79-19-2β^+; settings: Mueller-Hinton agar
Description: as §1, §2

[13] = test system: Staphylococcus SSC 79-18β^-; settings: Mueller-Hinton agar
Description: as §1, §2

Staphylococcus Smith = settings: Mueller-Hinton agar, Table I
Description: as §1, §2

Proteus rettgheri N 76-1 = settings: Mueller-Hinton agar
Description: as §1, §2

[14] = Acinetobacter, STFD7917, Acinetobacter STFD 79-17, read-out: MIC
[15] = Enterococcus, OSU751, Enterococcus OSU 75-1, read-out: MIC
[16] = Pseudomonas, 1244, Pseudomonas 12-4-4, read-out: MIC
[17] = Pseudomonas aeruginosa, ATCC27853, Pseudomonas aeruginosa ATCC 27853, read-out: MIC

Row | Compound | MIC (Acinetobacter K 77-1) [µg/mL] | MIC (Acinetobacter STFD 79-17; [14]) [µg/mL] | MIC [1] [µg/mL] | MIC [2] [µg/mL] | MIC (Enterococcus OSU 75-1; [15]) [µg/mL] | MIC (Enterococcus SM 77-15) [µg/mL] | MIC (Escherichia coli 311) [µg/mL] | MIC [3] [µg/mL] | MIC [4] [µg/mL] | MIC [5] [µg/mL] | MIC (Klebsiella SSC 78-1) [µg/mL] | MIC (Klebsiella STFD 79-6) [µg/mL] | MIC (Klebsiella pneumoniae AD) [µg/mL] | MIC (Proteus morganii K 79-25) [µg/mL] | MIC (Pseudomonas 12-4-4; [16]) [µg/mL] | MIC (Pseudomonas SSC 78-13) [µg/mL] | MIC [9, 17] [µg/mL] | MIC (Salmonella SSC 79-57) [µg/mL] | MIC ([12]; Staphylococcus, read-out: MIC) [µg/mL] | MIC (Staphylococcus Smith; Staphylococcus, read-out: MIC) [µg/mL] | further results
1 | CO/N=C(\C(=O)N[C@@H]1C(=O)N2C(C(=O)O)=C(CSc3nnsc3C(C)(C)C)CS[C@H]12)c1csc(N)n1 [Example 6, (Z)-7-[[(2-Amino-4-thiazolyl)(methoxyimino)acetyl]amino]-3-[[[5-(1,1-dimethylethyl)-1,2,3-thiadiazol-4-yl]thio]methyl]-8-oxo-5-thia-1-azabicyclo[4.2.0]oct-2-ene-2-carboxylic acid] | 32 (≈ 56.2 µM) | 32 (≈ 56.2 µM) | 4 (≈ 7.02 µM) | 1 (≈ 1.76 µM) | 256 (≈ 449 µM) | 128 (≈ 225 µM) | 0.5 (≈ 0.878 µM) | 2 (≈ 3.51 µM) | 0.5 (≈ 0.878 µM) | 0.5 (≈ 0.878 µM) | 1 (≈ 1.76 µM) | 2 (≈ 3.51 µM) | 0.25 (≈ 0.439 µM) | 16 (≈ 28.1 µM) | 64 (≈ 112 µM) | 64 (≈ 112 µM) | 128 (≈ 225 µM) | 8 (≈ 14 µM) | 16 (≈ 28.1 µM) | 2 (≈ 3.51 µM) | MIC [6]: 0.25 µg/mL (≈ 0.439 µM); MIC (Proteus rettgheri K 77-6): ≤ 0.12 µg/mL; MIC [7]: 1 µg/mL (≈ 1.76 µM); MIC [8]: 5 µg/mL (≈ 8.78 µM); MIC [10]: 2 µg/mL (≈ 3.51 µM); MIC (Serratia QHC 77-2): 8 µg/mL (≈ 14 µM); MIC (Serratia TUL 78-15): 8 µg/mL (≈ 14 µM); MIC [11]: 4 µg/mL (≈ 7.02 µM); MIC [13]: 1 µg/mL (≈ 1.76 µM)
2 | CO/N=C(\C(=O)N[C@@H]1C(=O)N2C(C(=O)O)=C(CSc3nnsc3-c3ccc(C(C)(C)C)cc3)CS[C@H]12)c1csc(N)n1 [Example 2, (Z)-7-[[(2-Amino-4-thiazolyl)(methoxyimino)acetyl]amino]-3-[[[5-[4-(1,1-dimethylethyl)phenyl]-1,2,3-thiadiazol-4-yl]thio]methyl]-8-oxo-5-thia-1-azabicyclo-[4.2.0]oct-2-ene-2-carboxylic acid] | 16 (≈ 24.8 µM) | 128 (≈ 198 µM) | 0.5 (≈ 0.774 µM) | 2 (≈ 3.1 µM) | 256 (≈ 396 µM) | 256 (≈ 396 µM) | 0.25 (≈ 0.387 µM) | 0.06 (≈ 0.0929 µM) | ≤ 0.03 | 0.25 (≈ 0.387 µM) | 0.06 (≈ 0.0929 µM) | 0.06 (≈ 0.0929 µM) | 0.06 (≈ 0.0929 µM) | 0.5 (≈ 0.774 µM) | > 256 | > 256 | > 256 | 4 (≈ 6.19 µM) | 32 (≈ 49.5 µM) | 8 (≈ 12.4 µM) | MIC [6]: 0.06 µg/mL (≈ 0.0929 µM); MIC (Proteus rettgheri N 76-1): ≤ 0.03 µg/mL; MIC [10]: 1 µg/mL (≈ 1.55 µM); MIC (Serratia QHC 77-2): 32 µg/mL (≈ 49.5 µM); MIC (Serratia TUL 78-15): 32 µg/mL (≈ 49.5 µM); MIC [11]: 16 µg/mL (≈ 24.8 µM); MIC [13]: 8 µg/mL (≈ 12.4 µM)
3 | CO/N=C(\C(=O)N[C@@H]1C(=O)N2C(C(=O)O)=C(CSc3nnsc3-c3ccccc3)CS[C@H]12)c1csc(N)n1 [Example 1, (Z)-7-[[(2-Amino-4-thiazolyl)(methoxyimino)acetyl]amino]-8-oxo-3-[[(5-phenyl-1,2,3-thiadiazol-4-yl)thio]mehtyl]-5-thia-1-azabicyclo[4.2.0]oct-2-ene-2-carboxylic acid] | 4 (≈ 6.78 µM) | 16 (≈ 27.1 µM) | 1 (≈ 1.7 µM) | 4 (≈ 6.78 µM) | 128 (≈ 217 µM) | 64 (≈ 109 µM) | 0.5 (≈ 0.848 µM) | 0.12 (≈ 0.203 µM) | ≤ 0.015 | 0.5 (≈ 0.848 µM) | 0.5 (≈ 0.848 µM) | 0.5 (≈ 0.848 µM) | 0.25 (≈ 0.424 µM) | 0.5 (≈ 0.848 µM) | > 128 | 128 (≈ 217 µM) | 128 (≈ 217 µM) | 4 (≈ 6.78 µM) | 4 (≈ 6.78 µM) | 1 (≈ 1.7 µM) | MIC (Proteus rettgheri N 76-1): ≤ 0.015 µg/mL; MIC [10]: 1 µg/mL (≈ 1.7 µM); MIC (Serratia QHC 77-2): 8 µg/mL (≈ 13.6 µM); MIC (Serratia TUL 78-15): 8 µg/mL (≈ 13.6 µM); MIC [11]: 2 µg/mL (≈ 3.39 µM); MIC [13]: 1 µg/mL (≈ 1.7 µM)
4 | CO/N=C(\C(=O)N[C@@H]1C(=O)N2C(C(=O)O)=C(COC(C)=O)CS[C@H]12)c1csc(N)n1 [Cefotaxime, 3-[(acetyloxy)methyl]-7β-[[(2-amino-4-thiazolyl)(methoxyimino)acetyl]amino]-8-oxo-5-thia-1-azabicyclo[4.2.0]oct-2-ene-2-carboxylic acid, reference compound] |  | 8 (≈ 17.6 µM) | 0.03 (≈ 0.0659 µM) |  | 128 (≈ 281 µM) |  |  |  |  |  |  |  |  |  | 16 (≈ 35.1 µM) | 32 (≈ 70.3 µM) | 16 (≈ 35.1 µM) | 0.25 (≈ 0.549 µM) | 4 (≈ 8.78 µM) | 1 (≈ 2.2 µM) | MIC (Acinetobacter STFD 79-17; Acinetobacter STFD 79-17): 16 µg/mL (≈ 35.1 µM); MIC (Enterococcus OSU 75-1; Enterococcus OSU 75-1): 64 µg/mL and > 128 µg/mL; MIC (Proteus rettgheri K 77-6): ≤ 0.06 µg/mL; MIC (Proteus rettgheri N 76-1): ≤ 0.015 µg/mL; MIC [7]: 0.25 µg/mL (≈ 0.549 µM); MIC [8]: ≤ 0.06 µg/mL; MIC (Pseudomonas 12-4-4; Pseudomonas 12-4-4): 8 µg/mL (≈ 17.6 µM); MIC ([9]; Pseudomonas aeruginosa ATCC 27853): 32 µg/mL (≈ 70.3 µM); MIC [12]: 8 µg/mL (≈ 17.6 µM); MIC (Staphylococcus Smith): 2 µg/mL (≈ 4.39 µM)
